Laboratory results published in patent US20090291929A1, “STEROIDS HAVING A MIXED […] PRO[…]” (N.V. ORGANON, priority 2005, published 2009).
Where two headings read alike, the source gives them in different places.

Legend:
[1] = from literature (Seaman 1985); cited from earlier work
[2] = from literature; cited from earlier work
Oral activity = type: in vivo; details: found by applicant ("We have found")
[3] = Prevention of trabecular bone mineral density (BMD) loss; type: in vivo; details: found by applicant
Source text: Biological activity of compounds according to the invention can be observed in vivo in the rat serum LH suppression test and in the rat anti-steoporosis test measuring restoration of trabecular bone mineral density. Anabolic effect can be observed on musculus levator ani. In the monkey activity can be observed in the testosterone suppression test. In vivo liver safety can be evaluated in the rabbit upon repeated administration of a compound according to the invention.

[4] = Liver safety: BSP retention assay in male castrated rabbits; type: in vivo, New Zealand White rabbits; details: 10 mg/kg/day per oral for 7 days, BSP 15 mg/kg intravenous
Procedure: The primary aim of this test was the evaluation of liver function, by measuring the clearance of a single, intravenously injected, dose of bromosulfophthalein (BSP) after 7 days (once daily) per oral treatment of male castrated rabbits with a compound of the invention.
Briefly, this test is performed in mature male castrated New Zealand White rabbits. At least two weeks after castration animals are treated for seven days (once daily) with tablets, or arachis oil containing 5% (v/v) ethanol, resulting in a dose of 10 mg/kg/day of a test compound. Twenty-four hours after the last administration the rabbits were light sedated with 0.15 ml Hypnorm intramuscular, BSP was injected (15 mg/kg intravenous, dissolved in 5% (w/v) mannitol/H2O). Blood is collected at 5, 10, 15 and 20 minutes, BSP content in plasma is determined with a spectrophotometer. The t½ of BSP elimination from the blood is calculated from the obtained data.

[5] = molecular target: T1, human androgen receptor (hAR) (Homo sapiens, UniProt P10275); assay: Transactivative androgen agonistic activity in CHO cells transfected with hAR, MMTV and luciferase; type: cell-based; details: MMTV-luciferase, incubation 16 h, 37° C.
T1 construct: expressed in transfected cells; host or cells: Chinese hamster ovary cells (CHO)
T1 sequence (P10275 1-920): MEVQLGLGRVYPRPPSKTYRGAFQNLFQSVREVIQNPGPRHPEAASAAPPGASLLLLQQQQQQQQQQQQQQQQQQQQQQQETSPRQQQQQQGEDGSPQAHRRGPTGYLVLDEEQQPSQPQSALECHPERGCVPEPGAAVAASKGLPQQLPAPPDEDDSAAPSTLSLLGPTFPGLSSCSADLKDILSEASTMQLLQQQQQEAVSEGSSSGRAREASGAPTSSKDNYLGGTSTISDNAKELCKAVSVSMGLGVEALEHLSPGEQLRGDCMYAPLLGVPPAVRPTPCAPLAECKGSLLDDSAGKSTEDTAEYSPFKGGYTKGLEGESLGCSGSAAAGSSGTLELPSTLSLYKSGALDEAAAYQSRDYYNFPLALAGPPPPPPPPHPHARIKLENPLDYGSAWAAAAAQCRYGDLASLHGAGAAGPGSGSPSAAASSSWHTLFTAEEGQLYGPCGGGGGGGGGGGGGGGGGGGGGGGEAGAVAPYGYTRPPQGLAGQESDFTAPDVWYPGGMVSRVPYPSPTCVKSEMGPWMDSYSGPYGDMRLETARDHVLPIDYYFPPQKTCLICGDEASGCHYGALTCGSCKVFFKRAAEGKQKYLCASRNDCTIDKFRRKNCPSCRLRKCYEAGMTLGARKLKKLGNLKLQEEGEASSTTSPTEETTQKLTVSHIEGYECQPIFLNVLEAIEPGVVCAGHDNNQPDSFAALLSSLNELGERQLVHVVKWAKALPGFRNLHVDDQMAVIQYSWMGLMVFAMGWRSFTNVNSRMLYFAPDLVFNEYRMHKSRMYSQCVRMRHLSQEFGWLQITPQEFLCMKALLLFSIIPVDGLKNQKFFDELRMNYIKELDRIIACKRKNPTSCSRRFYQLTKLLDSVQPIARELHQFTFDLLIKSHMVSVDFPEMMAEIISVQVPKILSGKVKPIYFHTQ
Procedure: (§1) The transactivative androgen agonistic activity of the compounds of the invention was measured in Chinese hamster ovary cells (CHO) transfected with the human androgen receptor (hAR), in combination with a mouse mammary tumor virus (MMTV), and luciferase receptor gene (incubation time 16 h, temperature 37° C.) and compared with the activity of 5α-dihydrotestosterone [according to the procedure described by Schoonen, W. G. E. J. et al., Analyt. Biochem. 261, 222-224 (1998)].

[6] = molecular target: T2, human progesterone receptor B (hPRB) (Homo sapiens, UniProt P06401); assay: Transactivative progestagenic agonistic activity in CHO cells transfected with hPRB, MMTV and luciferase; type: cell-based; details: MMTV-luciferase, incubation 16 h, 37° C.
T2 construct: expressed in transfected cells; host or cells: Chinese hamster ovary cells (CHO)
T2 sequence (P06401 1-933): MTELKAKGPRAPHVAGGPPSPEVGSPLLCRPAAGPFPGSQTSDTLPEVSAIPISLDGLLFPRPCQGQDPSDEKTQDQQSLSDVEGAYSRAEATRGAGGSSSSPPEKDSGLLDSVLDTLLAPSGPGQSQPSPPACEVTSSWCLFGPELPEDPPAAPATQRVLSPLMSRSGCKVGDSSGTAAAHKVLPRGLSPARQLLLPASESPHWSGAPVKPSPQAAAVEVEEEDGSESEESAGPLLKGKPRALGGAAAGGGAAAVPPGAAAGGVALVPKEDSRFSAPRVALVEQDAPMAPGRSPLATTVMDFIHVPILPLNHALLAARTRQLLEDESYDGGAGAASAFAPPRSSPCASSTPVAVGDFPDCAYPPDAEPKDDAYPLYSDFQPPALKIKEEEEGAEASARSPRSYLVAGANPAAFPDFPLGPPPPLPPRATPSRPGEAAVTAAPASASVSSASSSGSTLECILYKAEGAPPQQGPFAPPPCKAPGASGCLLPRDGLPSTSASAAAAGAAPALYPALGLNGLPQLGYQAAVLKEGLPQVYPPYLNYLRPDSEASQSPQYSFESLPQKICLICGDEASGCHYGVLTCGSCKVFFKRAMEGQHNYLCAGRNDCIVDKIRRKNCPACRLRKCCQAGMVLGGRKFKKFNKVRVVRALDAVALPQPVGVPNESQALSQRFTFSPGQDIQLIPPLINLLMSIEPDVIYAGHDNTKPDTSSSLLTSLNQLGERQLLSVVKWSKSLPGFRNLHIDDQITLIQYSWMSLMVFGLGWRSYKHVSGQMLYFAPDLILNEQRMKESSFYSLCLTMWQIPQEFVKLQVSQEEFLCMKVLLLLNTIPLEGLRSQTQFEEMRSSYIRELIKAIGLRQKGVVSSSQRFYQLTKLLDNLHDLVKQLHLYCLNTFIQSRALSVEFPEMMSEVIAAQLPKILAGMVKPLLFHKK
Procedure: as §1, with “transactivative progestagenic” for “transactivative androgen”, “human progesterone” for “human androgen”, “receptor B (hPRB),” for “receptor (hAR),”, “of (16α)-16-ethyl-21-hydroxy-19-norpregn-4-ene-3,20-dione” for “of 5α-dihydrotestosterone”

Liver toxicity = details: stated without citation
[7] = vehicle Arachis oil + 5% ethanol

Compound | Androgen activity: Relative agonistic activity (%) versus 5α-dihydrotestosterone [5] [%] | Progestagen activity: Relative agonistic activity (%) versus (16α)-16-ethyl-21-hydroxy-19-norpregn-4-ene-3,20-dione [6] [%] | also measured
C[C@@H]1CC2=CC(=O)CC[C@@H]2[C@H]2CC[C@@]3(C)[C@@H](CC[C@]3(C)O)[C@@H]21 [7α,17α-dimethylnandrolone] |  |  | Liver toxicity [1]: severe liver toxicity; Oral activity [2]: orally active
CC1CC2=CC(=O)CCC2C2CCC3(C)C(O)CCCC3C12 [7α-Methyl-19-nor-D-homotestosterone] |  |  | Oral activity (Oral activity): not an orally active compound
C[C@]1(O)CCC[C@H]2[C@@H]3CCC4=CC(=O)CC[C@@H]4[C@H]3CC[C@@]21C [17aα-Methyl-19-nor-D-homotestosterone] |  |  | Prevention of trabecular bone mineral density (BMD) loss [3]: unable to prevent trabecular bone mineral density (BMD) loss; Oral activity (Oral activity): low activity upon oral administration
C[C@]12CCC(=O)C=C1CC[C@@H]1[C@@H]2CC[C@@]2(C)[C@H]1CC[C@]2(C)O [17α-Methyltestosterone, reference compound] |  |  | T½ BSP [4, 7]: 5.6 min; T½ BSP ([4]; vehicle Tablet): 6.0 min
CCC12CCC3C4CCC(=O)C=C4CCC3C1CCCC2(C)O [(17aβ)-13-ethyl-17a-hydroxy-17a-methyl-D-homogon-4-en-3-one] |  |  | Oral activity (Oral activity): not orally active
CCC12CCC3C4CCC(=O)C=C4CCC3C1CCCC2O [(17aβ)-13-ethyl-17a-hydroxy-D-homogon-4-en-3-one] |  |  | Oral activity (Oral activity): not orally active
CCC1CC2=CC(=O)CCC2C2CCC3(C)C(=CCCC3O)C12 [Compound of Example 2, (7α,17aβ)-7-Ethyl-17a-hydroxy-D-homoestra-4,14-dien-3-one] | 30.5 | 0.47 | 
CC1CC2=CC(=O)CCC2C2CCC3(C)C(=CCC(C)C3O)C12 [Compound of Example 3, (7α,17α,17aβ)-17a-Hydroxy-7,17-dimethyl-D-homoestra-4,14-dien-3-one] | 10.2 | 47.4 | 
CC1CC2=CC(=O)CCC2C2CCC3(C)C(=CCCC3(C)O)C12 [Compound of Example 4, (7α,17aβ)-17a-Hydroxy-7,17a-dimethyl-D-homoestra-4,14-dien-3-one] | 106.9 | 133.7 | T½ BSP [4, 7]: 4.9 min; T½ BSP ([4]; vehicle Tablet): 5.5 min
CC1CC2=CC(O)CCC2C2CCC3(C)C(=CCCC3(C)O)C12 [Compound of Example 5, (3β,7α,17aβ)-7,17a-Dimethyl-D-homoestra-4,14-dien-3,17a-diol] | 36.2 | 6.4 | 
CCC1(O)CCC=C2C3C(C)CC4=CC(=O)CCC4C3CCC21C [Compound of Example 6, (7α,17aα)-17a-Hydroxy-7-methyl-D-homo-19-norpregna-4,14-dien-3-one] | 13.2 | 91.2 | 
CC1(O)CCC=C2C3CCC4=CC(=O)CCC4C3CCC21C [Compound of Example 8, (17aβ)-17a-Hydroxy-17a-methyl-D-homoestra-4,14-dien-3-one] | 157.9 | 228.4 | 
C#CC1(O)CCC=C2C3CCC4=CC(=O)CCC4C3CCC21C [Compound of Example 9, (17aα)-17a-Hydroxy-D-homo-19-norpregna-4,14-dien-20-yn-3-one] | 12.3 | 16.0 | 
C[C@@H]1CC2=CC(=O)CC[C@@H]2[C@H]2CC[C@@]3(C)C(=CC[C@]3(C)O)[C@@H]21 [Reference compound, (7α,17β)-17-Hydroxy-7,17-dimethylestra-4,14-dien-3-one] |  |  | Liver toxicity (Liver toxicity): severe liver toxicity
